From BindingDB's records for patent US20250313563 (The Broad Institute, 2025) come the findings set out here.

Molecules are shown by their SMILES. pIC50: −log10 of the molar value. Where “and” joins values, the source holds several entries; their conditions need not be identical. Identical values can stand only once. Where only a bound is given, the exact number is not on record here.

Assay [1] deals with Glycogen synthase kinase-3 alpha (Homo sapiens, UniProt P49840). In words: TR-FRET Assay. The essentials: (§1)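 Kinase activity, measured after a 30-minute compound preincubation, was stopped with EDTA and quantified by TR-FRET using a Tb-labelled pSer641 antibody paired with streptavidin-d2.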
Glycogen synthase kinase-3 alpha, sequence (P49840 whole entry): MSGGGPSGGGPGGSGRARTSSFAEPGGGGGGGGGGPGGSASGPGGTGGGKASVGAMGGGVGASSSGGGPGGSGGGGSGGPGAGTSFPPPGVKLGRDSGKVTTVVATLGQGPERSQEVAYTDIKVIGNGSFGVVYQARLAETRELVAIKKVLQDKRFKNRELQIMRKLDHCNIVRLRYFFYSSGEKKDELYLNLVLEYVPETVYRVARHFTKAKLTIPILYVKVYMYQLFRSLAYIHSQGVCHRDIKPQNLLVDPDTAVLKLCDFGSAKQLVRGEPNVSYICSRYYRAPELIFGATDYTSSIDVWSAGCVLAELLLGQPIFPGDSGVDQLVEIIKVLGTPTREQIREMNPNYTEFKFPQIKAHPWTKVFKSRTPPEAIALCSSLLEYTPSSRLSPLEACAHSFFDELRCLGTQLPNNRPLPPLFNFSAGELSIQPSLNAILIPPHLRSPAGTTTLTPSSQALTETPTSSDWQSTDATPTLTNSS
A general note: Time-resolved FRET reads energy transfer from a long-lived donor to a nearby acceptor.

In assay [2] the target is Glycogen synthase kinase-3 beta (Homo sapiens, UniProt P49841). In words: TR-FRET Assay. The essentials: as §1
Glycogen synthase kinase-3 beta, sequence (P49841 whole entry): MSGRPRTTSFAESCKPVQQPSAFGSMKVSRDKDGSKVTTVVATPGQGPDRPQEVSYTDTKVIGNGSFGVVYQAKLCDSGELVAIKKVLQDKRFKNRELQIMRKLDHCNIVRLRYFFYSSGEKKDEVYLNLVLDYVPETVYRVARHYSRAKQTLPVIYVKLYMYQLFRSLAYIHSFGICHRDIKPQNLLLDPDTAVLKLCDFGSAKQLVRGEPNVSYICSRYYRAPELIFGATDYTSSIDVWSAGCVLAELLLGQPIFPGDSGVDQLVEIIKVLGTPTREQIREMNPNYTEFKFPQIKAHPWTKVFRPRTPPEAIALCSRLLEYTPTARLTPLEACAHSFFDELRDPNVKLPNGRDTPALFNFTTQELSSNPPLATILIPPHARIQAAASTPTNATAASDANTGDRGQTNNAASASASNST

For the compound `CC[C@]1(c2cccc(C(F)(F)F)c2)C2=CN=NC2NC2=C1C(=O)N(C)CC2` (some centres not stated) [US20250313563, Compound 917282], the pIC50 in assay [1] is > 7.00; in assay [2] it was 6.00 to 7.00.

Consider `CC[C@@]1(c2cccc(C(F)(F)F)c2)C2=CN=NC2NC2=C1C(=O)N(C)CC2` (some centres not stated) [US20250313563, Compound 917283], for which the negative logarithm of the IC50 (pIC50) in assay [1] and in assay [2] was < 5.30 throughout.

In the case of `CCC1(c2cccc(C(F)(F)F)c2)C2=CN=NC2NC2=C1C(=O)NC(c1ccccc1)C2` (configuration not stated) [US20250313563, Compound 917284], the figures for the negative logarithm of the IC50 (pIC50) in assay [1] and in assay [2] were 6.00 to 7.00 and 5.30 to 6.00, respectively.

On to `CC[C@@]1(c2cccc(-c3ccnc(C)c3)c2)C2=C(CC(C)(C)CC2=O)NC2N=NC(C(F)(F)F)=C21` (some centres not stated) [US20250313563, Compound 917289], for which the pIC50 in assay [1] is 6.00 to 7.00; in assay [2], 5.30 to 6.00.

On to `CC[C@]1(c2cccc(-c3ccnc(C)c3)c2)C2=C(CC(C)(C)CC2=O)NC2N=NC(C(F)(F)F)=C21` (some centres not stated) [US20250313563, Compound 917291], for which the negative-log IC50 (pIC50) in assay [1] was > 7.00; in assay [2], > 7.00 and 6.00 to 7.00.

`CC[C@@]1(c2cccc(-c3ccncc3)c2)C2=C(CC(C)(C)CC2=O)NC2N=NC(C(F)(F)F)=C21` (some centres not stated) [US20250313563, Compound 917292]: the pIC50 in assay [1] and in assay [2] was 6.00 to 7.00 in each case.

With `CC[C@]1(c2cccc(-c3ccncc3)c2)C2=C(CC(C)(C)CC2=O)NC2N=NC(C(F)(F)F)=C21` (some centres not stated) [US20250313563, Compound 917293], the pIC50 in assay [1] and in assay [2] was > 7.00 throughout.

Consider `CCC1(c2cccc(C(F)(F)F)c2)C2=C(N=NC2)NC2=C1C(=O)N(C)C2` (configuration not stated) [US20250313563, Compound 917294], for which the pIC50 in assay [1] was 6.00 to 7.00; in assay [2] it was 5.30 to 6.00.

`CCC1(c2cccc(C(F)(F)F)c2)C2=C(N=NC2)NC2=C1C(=O)NC2C` (configuration not stated) [US20250313563, Compound 917295]: the negative-log IC50 (pIC50) was 6.00 to 7.00 in assay [1] and 5.30 to 6.00 in assay [2].

Consider `CC[C@]1(c2cccc(C(F)(F)F)c2)C2=C(N=NC2)NC2=C1C(=O)N(C)C2(C)C` [US20250313563, Compound 918251], for which the negative logarithm of the IC50 (pIC50) in assay [1] and in assay [2] was < 5.30 throughout.

On to `CC[C@@]1(c2cccc(C(F)(F)F)c2)C2=C(N=NC2)NC2=C1C(=O)N(C)C2(C)C` [US20250313563, Compound 918252], for which the negative logarithm of the IC50 (pIC50) was > 7.00 in assay [1] and 6.00 to 7.00 in assay [2].

With `COC(=O)C1CCC2(CC1)C1=C(N=NC1)NC1=C2C(=O)CC(C)(C)C1` (configuration not stated) [US20250313563, Compound 918270], the pIC50 in assay [1] and in assay [2] was 6.00 to 7.00 throughout.

As to `CCC1(c2cccc(S(=O)(=O)CCOC)c2)C2=CN=NC2NC2=C1C(=O)CC(C)(C)C2` (configuration not stated) [US20250313563, Compound 918271], the pIC50 in assay [1] and in assay [2] was > 7.00 in each case.

For the compound `CCC1(c2cccc(N(C)c3ccc(C)nc3)c2)C2=CN=NC2NC2=C1C(=O)CC(C)(C)C2` (configuration not stated) [US20250313563, Compound 918272], the pIC50 in assay [1] and in assay [2] was 6.00 to 7.00 each time.

Take `CCC1(c2cccc(S(=O)(=O)C3CCCCC3)c2)C2=CN=NC2NC2=C1C(=O)CC(C)(C)C2` (configuration not stated) [US20250313563, Compound 918273]: the pIC50 in assay [1] and in assay [2] was > 7.00 in each case.

Regarding `CCC1(c2cccc(N(C)c3cccc(F)n3)c2)C2=CN=NC2NC2=C1C(=O)CC(C)(C)C2` (configuration not stated) [US20250313563, Compound 918274], the negative-log IC50 (pIC50) was > 7.00 in assay [1] and 6.00 to 7.00 in assay [2].

As to `CC1(C)CC(=O)C2=C(C1)NC1=C(CN=N1)C21CN(S(=O)(=O)C2CCCCC2)C1` [US20250313563, Compound 918275], the negative logarithm of the IC50 (pIC50) in assay [1] and in assay [2] was > 7.00 in each case.

Regarding `COc1cccc(S(=O)(=O)N2CC3(C2)C2=C(N=NC2)NC2=C3C(=O)CC(C)(C)C2)c1` [US20250313563, Compound 918276], the pIC50 in assay [1] and in assay [2] was > 7.00 in each case.

In the case of `CC1(C)CC(=O)C2=C(C1)NC1=C(CN=N1)C21CN(S(=O)(=O)c2cccc(F)c2)C1` [US20250313563, Compound 918278], the negative-log IC50 (pIC50) in assay [1] and in assay [2] was > 7.00 each time.

As to `CCC1(c2cccc(N3CCOc4ncccc43)c2)C2=CN=NC2NC2=C1C(=O)CC(C)(C)C2` (configuration not stated) [US20250313563, Compound 918279], the pIC50 in assay [1] and in assay [2] was > 7.00 each time.

Consider `CCC1(c2cccc(N3CCOc4ccccc43)c2)C2=CN=NC2NC2=C1C(=O)CC(C)(C)C2` (configuration not stated) [US20250313563, Compound 918280], for which the pIC50 in assay [1] and in assay [2] was > 7.00 each time.

As to `CCC1(c2cccc(-c3ccnc(C)c3F)c2)C2=CN=NC2NC2=C1C(=O)CC(C)(C)C2` (configuration not stated) [US20250313563, Compound 918281], the pIC50 in assay [1] was > 7.00; in assay [2] it was 6.00 to 7.00.

`CC1(C)CC2=C(C(=O)[C@H]1F)[C@]1(CC[C@H](C(F)(F)F)CC1)C1=C(N=NC1)N2` [US20250313563, Compound 918282]: the negative logarithm of the IC50 (pIC50) in assay [1] and in assay [2] was > 7.00 throughout.

Turning to `CC1(C)CC2=C(C(=O)[C@@H]1F)[C@]1(CC[C@H](C(F)(F)F)CC1)C1=CN=NC1N2` (some centres not stated) [US20250313563, Compound 918283], the pIC50 in assay [1] and in assay [2] was > 7.00 throughout.

As to `CC1(C)CC(=O)C2=C(NC3=C(CN=N3)[C@]23CC[C@@H](C(F)(F)F)CC3)[C@@H]1F` [US20250313563, Compound 918284], the negative-log IC50 (pIC50) in assay [1] and in assay [2] was > 7.00 each time.

As for `CC1(C)CC(=O)C2=C(NC3=C(CN=N3)[C@]23CC[C@@H](C(F)(F)F)CC3)[C@H]1F` [US20250313563, Compound 918285], the negative-log IC50 (pIC50) is > 7.00 and 5.30 to 6.00 in assay [1]; 6.00 to 7.00 and < 5.30 in assay [2].

Take `CCC1(c2cccc(C(F)(F)F)c2)C2=CN=NC2NC2=C1C(=O)N(c1ccccc1)C2` (configuration not stated) [US20250313563, Compound 918313]: the negative logarithm of the IC50 (pIC50) is 6.00 to 7.00 in assay [1] and 5.30 to 6.00 in assay [2].

For `C[C@@H]1C[C@@]2(CCN1S(C)(=O)=O)C1=C(N=NC1)NC1=C2C(=O)CC(C)(C)C1` [US20250313563, Compound 918315], the negative logarithm of the IC50 (pIC50) in assay [1] and in assay [2] was 6.00 to 7.00 in each case.

Take `C[C@@H]1C[C@]2(CCN1S(C)(=O)=O)C1=CN=NC1NC1=C2C(=O)CC(C)(C)C1` (some centres not stated) [US20250313563, Compound 918316]: the pIC50 in assay [1] was > 7.00; in assay [2], 6.00 to 7.00.

As to `CC[C@@]1(c2cccc(N3CCC[C@H]3C)c2)C2=CN=NC2NC2=C1C(=O)CC(C)(C)C2` (some centres not stated) [US20250313563, Compound 918322], the pIC50 in assay [1] and in assay [2] was < 5.30 each time.

In the case of `CC[C@]1(c2cccc(N3C[C@@H](C)[C@@H](C)C3)c2)C2=CN=NC2NC2=C1C(=O)CC(C)(C)C2` (some centres not stated) [US20250313563, Compound 918326], the pIC50 in assay [1] and in assay [2] was 6.00 to 7.00 throughout.

As for `CCC1(c2cccc(C(F)(F)F)c2)C2=CN=NC2NC2=C1C(=O)NCC2C` (configuration not stated) [US20250313563, Compound 919318], the negative logarithm of the IC50 (pIC50) in assay [1] was > 7.00; in assay [2], 6.00 to 7.00.

`CCN(c1cccc(C2(CC)C3=CN=NC3NC3=C2C(=O)CC(C)(C)C3)c1)c1ncccn1` (configuration not stated) [US20250313563, Compound 919840]: the negative logarithm of the IC50 (pIC50) in assay [1] and in assay [2] was > 7.00 throughout.

On to `CC1(C)CC(=O)C2=C(C1)NC1=C(CN=N1)[C@]21CCOC(C)(C)C1` [US20250313563, Compound 924298], for which the negative logarithm of the IC50 (pIC50) in assay [1] and in assay [2] was 5.30 to 6.00 in each case.

Take `CC1(C)CC(=O)C2=C(C1)NC1=C(CN=N1)[C@@]21CCOC(C)(C)C1` [US20250313563, Compound 924299]: the pIC50 in assay [1] and in assay [2] was 6.00 to 7.00 in each case.

Turning to `CC1(C)CC(=O)C2=C(C1)NC1=C(CN=N1)[C@@]21CCOC2(CCOCC2)C1` [US20250313563, Compound 924306], the pIC50 in assay [1] and in assay [2] was 6.00 to 7.00 in each case.

In the case of `C[C@H]1C[C@@]2(CCO1)C1=C(N=NC1)NC1=C2C(=O)CC(C)(C)C1` [US20250313563, Compound 924307], the pIC50 in assay [1] and in assay [2] was 6.00 to 7.00 throughout.

Take `C[C@@H]1C[C@]2(CCO1)C1=C(N=NC1)NC1=C2C(=O)CC(C)(C)C1` [US20250313563, Compound 924308]: the negative logarithm of the IC50 (pIC50) in assay [1] and in assay [2] was 6.00 to 7.00 each time.

On to `C[C@H]1COCC[C@]12C1=CN=NC1NC1=C2C(=O)CC(C)(C)C1` (some centres not stated) [US20250313563, Compound 924309], for which the pIC50 is 5.30 to 6.00 in assay [1] and < 5.30 in assay [2].

With `C[C@@H]1COCC[C@@]12C1=CN=NC1NC1=C2C(=O)CC(C)(C)C1` (some centres not stated) [US20250313563, Compound 924310], the pIC50 in assay [1] and in assay [2] was < 5.30 each time.

In the case of `CC[C@H]1C[C@@]2(CCO1)C1=C(N=NC1)NC1=C2C(=O)CC(C)(C)C1` [US20250313563, Compound 924311], the results for the pIC50 in assay [1] and in assay [2] were 6.00 to 7.00 and 5.30 to 6.00, respectively.

Take `CC[C@]1(c2cccc(N3C[C@H](C)[C@@H](C)C3)c2)C2=CN=NC2NC2=C1C(=O)CC(C)(C)C2` (some centres not stated) [US20250313563, Compound 924312]: the negative-log IC50 (pIC50) in assay [1] was 6.00 to 7.00; in assay [2] it was 5.30 to 6.00.

In the case of `CC[C@]1(c2cccc(N3C[C@@H](C)[C@H](C)C3)c2)C2=CN=NC2NC2=C1C(=O)CC(C)(C)C2` (some centres not stated) [US20250313563, Compound 924504], the negative-log IC50 (pIC50) in assay [1] and in assay [2] was 6.00 to 7.00 in each case.

Take `CC[C@@]1(c2cccc(N3C[C@H](C)[C@@H](C)C3)c2)C2=CN=NC2NC2=C1C(=O)CC(C)(C)C2` (some centres not stated) [US20250313563, Compound 924520]: the negative-log IC50 (pIC50) in assay [1] and in assay [2] was < 5.30 each time.

With `CC[C@@]1(c2cccc(N3C[C@@H](C)[C@H](C)C3)c2)C2=CN=NC2NC2=C1C(=O)CC(C)(C)C2` (some centres not stated) [US20250313563, Compound 924543], the values for the pIC50 in assay [1] and in assay [2] were 5.30 to 6.00 and < 5.30, respectively.

As for `CC[C@@H]1C[C@]2(CCO1)C1=C(N=NC1)NC1=C2C(=O)CC(C)(C)C1` [US20250313563, Compound 924715], the results for the pIC50 in assay [1] and in assay [2] were > 7.00 and 6.00 to 7.00, respectively.

The term pIC50 denotes the negative decadic logarithm of the IC50, by convention in mol/L. A lower pIC50 goes with a high IC50.
